According to paper PMC11901381 (Future Medicinal Chemistry, 2025):
Where two headings read alike, the source gives them in different places.

Tests used:
[1] = Animal cytotoxicity, CCK-8 assay; format: cell-based, bovine; conditions: bovine, MDBK (Madin-Darby bovine kidney) cells
[2] = test system: T. brucei gambiense strain IL1922; assay: Antitrypanosomal assay; format: cell-based, Trypanosoma brucei gambiense; conditions: IC50 of MDBK/IC50 of trypanosome
[3] = test system: T. brucei brucei strain GUTat3.1; assay: Antitrypanosomal assay; format: cell-based, Trypanosoma brucei brucei; conditions: for SI Tbb GuTat3.1: IC50 of MDBK/IC50 of trypanosome; for IC50: read-out: Antitrypomastigote activity IC50 ± SD Tbb GuTat3.1
[4] = test system: Trypanosoma spp.; assay: Antitrypanosomal assay, several species; format: cell-based; conditions: read-out: IC50 against several Trypanosoma spp.
[5] = test system: L. major strain NIH S intramacrophage amastigotes; assay: Intramacrophage antileishmanial resazurin assay; format: cell-based, Leishmania major; conditions: L. major; for SI5: SI5 = IC50 Vero/static IC50 amastigote; for SI6: SI6 = IC50 Vero/cidal IC50 amastigote; for SpI3: SpI3 = IC50 promastigote/static IC50 amastigote; for SpI4: SpI4 = IC50 promastigote/cidal IC50 amastigote
[6] = Host cell toxicity, resazurin assay; format: cell-based; conditions: human
[7] = test system: T. brucei rhodesiense strain IL1501; assay: Antitrypanosomal assay; format: cell-based, Trypanosoma brucei rhodesiense; conditions: IC50 of MDBK/IC50 of trypanosome
[8] = General; format: cell-based; conditions: African green monkey, Vero cells (monkey kidney epithelial cells)
[9] = test system: L. major strain NIH S promastigotes; assay: Antipromastigote resazurin assay; format: cell-based, Leishmania major; conditions: for AG (activity gain): IC50 (1)/IC50 (compd.), L. major promastigotes; for SI4: SI4 = IC50 Vero/IC50 promastigote, L. major; for IC50: Leishmania major, read-out: Antipromastigote activity IC50
[10] = test system: L. donovani strain 9515 promastigotes; assay: Antipromastigote resazurin assay; format: cell-based, Leishmania donovani; conditions: for AG (activity gain): IC50 (1)/IC50 (compd.), L. donovani promastigotes; for SI1: SI1 = IC50 Vero/IC50 promastigote, L. donovani; for IC50: Leishmania donovani, read-out: Antipromastigote activity IC50
[11] = test system: T. congolense strain IL3000; assay: Antitrypanosomal assay; format: cell-based, Trypanosoma congolense; conditions: IC50 of MDBK/IC50 of trypanosome
[12] = test system: T. equiperdum strain IVM-t1; assay: Antitrypanosomal assay; format: cell-based, Trypanosoma equiperdum; conditions: for SI Teq IVM-t1: IC50 of MDBK/IC50 of trypanosome
[13] = Solubility observed during sample preparation and screening; format: physicochemical; conditions: aqueous screening medium
[14] = test system: MDBK cells; assay: Animal cytotoxicity, CCK-8 assay; format: cell-based, bovine; conditions: read-out: Cytotoxicity IC50 ± SD MDBK; MDBK cells; three biological replicates

| IC50 [8] [µM] | Solubility in aqueous screening medium [13] | SMILES | IC50 [1] [µM] | SI Tbg IL1922 [2] | SI Tbb GuTat3.1 [3] | IC50 ([3]; Trypanosoma brucei) [µM] | IC50 [4] [µM] | SI5 [5] | SI6 [5] | SpI3 [5] | SpI4 [5] | IC50 [6] [µM] | SI Tbr IL1501 [7] | AG (activity gain) [9] | SI4 [9] | AG (activity gain) [10] | SI1 [10] | SI Tc IL3000 [11] | SI Teq IVM-t1 [12] | IC50 [9] [µM] | also measured |
| --- | --- | --- | --- | --- | --- | --- | --- | --- | --- | --- | --- | --- | --- | --- | --- | --- | --- | --- | --- | --- | --- |
| 15.2 ± 0.32 | poor solubility | O=C1NC(=S)S/C1=C\c1c[nH]c2ccc([N+](=O)[O-])cc12 [3a, (Z)-5-[(5-Nitro-1 H-indol-3-yl)methylene]-2-thioxothiazolidin-4-one] | 31.6 ± 1.67 | 1 | 1 | 33.7 ± 5.01 | – | 25 | 27 | 166 | 175 | > 100 | 0 | – | – | – | – | 1 | 1 | > 100 | IC50 [10]: > 100 µM |
| 13.5 ± 0.8 | poor solubility | C#CCn1cc(/C=C2\SC(=S)NC2=O)c2cc([N+](=O)[O-])ccc21 [3b, (Z)-5-{[5-Nitro-1-(prop-2-yn-1-yl)-1 H-indol-3-yl]methylene}-2-thioxothiazolidin-4-one] | > 312 | – | – | > 78 | 20 to 40 | – | – | – | – | – | 4 | 0.9 | 0.2 | 0.7 | 0.2 | – | – | 56.8 ± 5.57 | IC50 [10]: 68.7 ± 6.55 µM |
| – | – | CC(=O)NCC(=O)O.CC(=O)NCC(=O)O.N=C(N)c1ccc(N=NNc2ccc(C(=N)N)cc2)cc1 [Diminazine aceturate, diminazene aceturate, reference compound] | – | 33333 | 5263 | – | – | – | – | – | – | – | 9091 | – | – | – | – | 4000 | 16340 | – | IC50 [14]: > 355 µM; IC50 ([3]; three biological replicates): 0.068 µM; IC50 ([12]; read-out: Antitrypomastigote activity IC50 ± SD Teq IVM-t1, three biological replicates): 0.022 ± 0.002 µM |

| SMILES | IC50 [8] [µM] | Solubility in aqueous screening medium [13] | IC50 [1] [µM] | SI Tbg IL1922 [2] | SI Tbb GuTat3.1 [3] | IC50 ([3]; Trypanosoma brucei) [µM] | IC50 [4] [µM] | SI5 [5] | SI6 [5] | SpI3 [5] | SpI4 [5] | IC50 [6] [µM] | SI Tbr IL1501 [7] | AG (activity gain) [9] | SI4 [9] | AG (activity gain) [10] | SI1 [10] | SI Tc IL3000 [11] | SI Teq IVM-t1 [12] | IC50 [9] [µM] | also measured |
| --- | --- | --- | --- | --- | --- | --- | --- | --- | --- | --- | --- | --- | --- | --- | --- | --- | --- | --- | --- | --- | --- |
| O=Cc1cn(Cc2ccc(F)cc2)c2ccc([N+](=O)[O-])cc12 [2e, 1-(4-Fluorobenzyl)-5-nitro-1 H-indole-3-carbaldehyde] | > 100 | – | > 335 | 15 | 22 | 15 ± 8.48 | 20 to 40 | 8 | 8 | 7 | 8 | > 100 | 4 | 0.5 | 1 | 0.5 | 1 | – | – | – | – |
